Measurements published in patent publication US20130296330A1, “MACROCYCLIC INTEGRASE INHIBITORS FOR USE IN THE TREATMENT OF FELINE IMMUNODEFICIENCY VIRUS” (ELANCO ANIMAL HEALTH IRELAND LIMITED, priority 2011, published 2013).

Key:
FIV strain Utrecht-113 = experiment: Inhibitory activity on FIV replication wild type, CRFK cells (FIV p24 ELISA); type: cell-based; settings: Feline immunodeficiency virus, 144 h, FIV strain Utrecht-113, 6 days, read-out: EC50 (concentration required to reduce antigen production by 50%)
Method: (§1) The anti-FIV activity of the compounds was tested in primary feline thymocytes isolated form specific pathogen free cats, and in Crandell feline kidney (CRFK) cells.
Crandell Feline Kidney (CRFK) cells were maintained in DMEM (Dulbecco's Modified Eagle's Medium (Lonza) supplemented with, 10% inactivated fetal calf serum, antibiotics (100 IU/ml penicillin and 100 μg/ml streptomycin). Cells were seeded into a 96 well plate (5×10^4 cells per well) and pre-incubated with four-fold dilutions of the antiviral compound for 1 hours. The CrFK cells were washed with PBS DEAE 50 mg/l, inoculated with 100 TCID50 of FIV strain Utrecht-113 in the presence of the different concentrations of compound and subsequently incubated for 2 hours in a humidified incubator with a 5% CO2 atmosphere at 37° C. After 2 hours cells were washed twice in DMEM medium and new medium containing the different concentrations of compound were added. After incubation for 6 days the supernatant was harvested and the amount of virus within the supernatant determined using a FIV p24 ELISA. The 50% effective concentration (EC50) was defined as the concentration of the compound required to reduce the antigen production by 50% compared to untreated controls.

[1] = Cellular cytotoxic activity, mock-infected feline thymocytes, trypan blue exclusion staining; type: cell-based; settings: cat, read-out: CC50 (50% cytotoxic concentration)
Method: (§2) The cytotoxicity of the compounds was determined in parallel to the experiments under assay 1 on mock-infected feline thymocytes respectively CRFK cells cultured in the presence or absence of different concentrations of the compound.
Cytotoxicity on feline thymocytes was determined by trypan blue exclusion staining whereby the CC50 for compound (6) was measured as >10 nM.

FIV strain Thymo-113 = experiment: Inhibitory activity on FIV replication wild type, feline thymocytes (FIV p24 ELISA); type: cell-based; settings: Feline immunodeficiency virus, Thymocyte, 144 h, primary feline thymocytes, FIV strain Thymo-113, 6 days, read-out: EC50 (concentration required to reduce antigen production by 50%)
Method: as §1
Feline thymocytes were maintained in complete Iscove's Modified Medium (Iscoves medium supplemented with GlutamaxI (Invitrogen/Gibco BRL), 10% inactivated fetal calf serum, antibiotics (100 IU/ml penicillin and 100 μg/ml streptomycin) 2-Mercapto-ethanol (50 μM) and 100 IU/ml human recombinant IL-2 (Chiron). Cells were seeded into a 96 well plate (5×10^4 cells per well) and pre-incubated with four-fold dilutions of the antiviral compound. Plates were incubated for 1 hour in a humidified incubator with a 5% CO2 atmosphere at 37° C. Subsequently, cells were inoculated with 100 TCID50 of FIV strain Thymo-113 in the presence of the different concentrations of compound. After 2 hours cells were washed twice in Iscove's medium and new medium containing the different concentrations of compound were added. After incubation for 6 days the supernatant was harvested and the amount of virus within the supernatant determined using a FIV p24 ELISA. The 50% effective concentration (EC50) was defined as the concentration of the compound required to reduce the antigen production by 50% compared to untreated controls.

[2] = Cellular cytotoxic activity, mock-infected CRFK cells, MTT assay; type: cell-based, feline; settings: cat, read-out: CC50 (50% cytotoxic concentration)
Method: as §2
After 6 days of incubation cell viability of the CRFK cells was measured by using a colorimetric MTT assay. A solution of 3-(4,5-dimethylthiazol-2-yl)-2,5-diphenyltetrazolium bromide (MTT) in PBS at a final concentration of 0.5 mg/ml was added to each well. After 2 hours incubation at 37 C and 5% CO2, the medium containing the MTT was removed and the cells were lysed by addition of 200 μl DMSO to each well. Following 10 minutes incubation at room temperature on a rocking plate, the optical density (OD) values at […] were determined. The compound concentration that decreased the viability of 50% of the cells was defined as the 50% cytotoxic concentration (CC50).

EC50 (FIV strain Utrecht-113): 20 nM
EC50 (FIV strain Thymo-113): 20 nM
Compound: CN1c2nc(c(O)c3ncccc23)C(=O)NCc2ccc(F)cc2C(=O)NCCCCCS1(=O)=O [Compound 6]
CC50 [1]: > 10 nM
CC50 at 6 days [2]: > 10 nM
